This is an account of results in US7645762B2, “Substituted pyrazolo[1,5-a] pyrimidines as protein kinase inhibitors” (Schering Corporation, priority 2005, dated 2010).

The test addresses T1, CDK2 (Homo sapiens, UniProt P24941).
T1 construct: The expressed protein was approximately 34 kDa in size; made in house; host or cells: SF9 insect cells (baculovirus, pFASTBAC)
Put plainly: CDK2 in vitro kinase assay (SPA, 33P-ATP, biotinylated Histone H1 peptide). Type of test: biochemical. As to conditions: recombinant cyclin A or E-dependent CDK2 from baculovirus/SF9 cells; 1 hour at room temperature; 8 point dilutions in duplicate.

Structures are written as SMILES.

Broadly, the IC50 is the concentration that gives 50% inhibition. Regarding `Nc1cc2nc(-c3ccccc3)cc(N)n2n1`, the IC50 stood at 80 nM. For `Nc1nn2c(N)cc(-c3ccccc3)nc2c1Br`, the IC50 amounted to 4670 nM.
